We go through 18 compounds from PubChem BioAssay (NCI).

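These data come from cells grown in 96-well plates and exposed to compound for 48 hours at five concentrations. Definition used: TGI = concentration required for complete inhibition of growth.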

Test systems include 786-0 renal; BT-549 breast; EKVX NSCLC; HCT-15 colon; HOP-92 NSCLC; MCF7 breast; MDA-N; SN12C renal; TK-10 renal; UACC-257 melanoma.
Common to all, as to test: growth of human tumour cells (NCI), 48 h

Turning to `CSC1=NS(=O)(=O)c2cc(C(=O)NN(C)C(=O)c3cc4c(cc3Cl)SC(SC)=NS4(=O)=O)c(Cl)cc2S1`, the TGI with 786-0 renal, with BT-549 breast, in the experiment on EKVX NSCLC, in the experiment with HCT-15 colon, in the experiment with HOP-92 NSCLC and with MCF7 breast was above 10 µM each time. The TGI in the experiment with MDA-N, with SN12C renal, in the experiment with TK-10 renal and with UACC-257 melanoma was above 10 µM throughout.
Turning to `CCOC(=O)C(CS)NC(=O)CCCCCCCC(=O)NC(CS)C(=O)OCC` (stereo not given), the TGI in the experiment on 786-0 renal, in the experiment on BT-549 breast, in the experiment on EKVX NSCLC, with HCT-15 colon, in the experiment with HOP-92 NSCLC and with MCF7 breast was above 100 µM in each case. Besides, the TGI in the experiment with MDA-N, in the experiment on SN12C renal, in the experiment on TK-10 renal and in the experiment on UACC-257 melanoma was above 100 µM in each case.
With `CSc1cc(N)ccc1N=Nc1ccc(S(N)(=O)=O)cc1`, the TGI in the experiment with 786-0 renal was 76.8 µM; with BT-549 breast it was 36.4 µM; in the experiment on EKVX NSCLC, above 100 µM; in the experiment on HCT-15 colon, 62.9 µM; in the experiment on HOP-92 NSCLC, 68.2 µM; with MCF7 breast, above 100 µM. Besides, the TGI was above 100 µM in the experiment with MDA-N, above 100 µM in the experiment with SN12C renal, 72 µM with TK-10 renal and above 100 µM in the experiment on UACC-257 melanoma.
Consider `Cc1c(NC2(C)C(=O)N(/N=C/c3ccccc3)N=C2c2ccccc2)n[nH]c1-c1ccccc1` (stereo not given), for which the TGI with 786-0 renal, in the experiment on BT-549 breast, in the experiment on EKVX NSCLC, with HCT-15 colon, with HOP-92 NSCLC and with MCF7 breast was above 100 µM in each case. Moreover, the TGI with MDA-N, in the experiment with SN12C renal, with TK-10 renal and in the experiment with UACC-257 melanoma was above 100 µM in each case.
Consider `Cc1ccc(-c2n[nH]c(=O)[nH]2)cc1[N+](=O)[O-]`, for which the TGI in the experiment on 786-0 renal, with BT-549 breast, in the experiment with EKVX NSCLC, in the experiment with HCT-15 colon, in the experiment on HOP-92 NSCLC and in the experiment on MCF7 breast was above 100 µM each time. Besides, the TGI with MDA-N, in the experiment with SN12C renal, in the experiment with TK-10 renal and with UACC-257 melanoma was above 100 µM each time.
`COc1c(C)c(OC)c2c(c1O)[C@@H]1[C@@H]3Cc4c(OC)c(C)c(OC)c(O)c4[C@H](CNC(=O)c4cnc5ccccc5n4)N3[C@@H](C#N)[C@H](C2)N1C`: the TGI is above 0.1 µM in the experiment with 786-0 renal; 0.02 µM with BT-549 breast; above 0.00703 µM in the experiment on EKVX NSCLC; above 0.0716 µM with HCT-15 colon; 0.0129 µM in the experiment with HOP-92 NSCLC; above 0.1 µM in the experiment on MCF7 breast. The TGI in the experiment on MDA-N was 0.00362 µM; with SN12C renal, above 0.0718 µM; in the experiment on TK-10 renal, 0.0248 µM; in the experiment on UACC-257 melanoma, 0.00756 µM.
Consider `COc1ccc2nc3cc(Cl)ccc3c(NCCNCCCNC(=O)c3cc(-c4ccccc4)nc4ccccc34)c2c1`, for which the TGI with 786-0 renal, with BT-549 breast, with EKVX NSCLC, in the experiment with HCT-15 colon, with HOP-92 NSCLC and in the experiment on MCF7 breast was above 100 µM each time. The TGI was 97.5 µM in the experiment with MDA-N, above 100 µM with SN12C renal, above 100 µM with TK-10 renal and above 100 µM in the experiment on UACC-257 melanoma.
Regarding `COc1cc(C2S/C(=C/c3ccccc3)C(=O)N2c2ccc(Cl)c(Cl)c2)cc(OC)c1OC` (stereo not given), the TGI in the experiment with 786-0 renal is above 100 µM; in the experiment on BT-549 breast, above 100 µM; in the experiment with EKVX NSCLC, above 100 µM; with HCT-15 colon it was above 100 µM; with HOP-92 NSCLC, above 84.2 µM; in the experiment on MCF7 breast, above 87.7 µM. Moreover, the TGI in the experiment with MDA-N is above 84.9 µM; with SN12C renal it was above 100 µM; in the experiment on TK-10 renal, above 100 µM; in the experiment with UACC-257 melanoma it was above 100 µM.
With `c1ccc2c(c1)nc1n2CCSC1`, the TGI in the experiment with 786-0 renal, in the experiment with BT-549 breast, in the experiment on EKVX NSCLC, with HCT-15 colon, in the experiment on HOP-92 NSCLC and with MCF7 breast was above 100 µM in each case. Moreover, the TGI with MDA-N, in the experiment with SN12C renal, in the experiment on TK-10 renal and in the experiment on UACC-257 melanoma was above 100 µM each time.
`Cn1c2ccccc2c2c3c(c4c5ccccc5n(C)c4c21)C(=O)c1ccccc1C3=O`: the TGI with 786-0 renal was 31.7 µM; in the experiment on BT-549 breast it was 52.6 µM; in the experiment with EKVX NSCLC, above 100 µM; in the experiment on HCT-15 colon, above 100 µM; in the experiment with HOP-92 NSCLC, above 100 µM; in the experiment with MCF7 breast it was above 100 µM. The TGI was above 100 µM in the experiment with MDA-N, above 100 µM in the experiment with SN12C renal, 81.3 µM in the experiment on TK-10 renal and above 100 µM in the experiment with UACC-257 melanoma.
On to `COC(=O)[C@@]12CCCC(=O)[C@@H]1[C@H]1CCCC[C@H]12`, for which the TGI in the experiment with 786-0 renal, with BT-549 breast, with EKVX NSCLC, in the experiment with HCT-15 colon, with HOP-92 NSCLC and in the experiment with MCF7 breast was above 100 µM throughout. Besides, the TGI in the experiment with MDA-N, in the experiment with SN12C renal, with TK-10 renal and in the experiment on UACC-257 melanoma was above 100 µM throughout.
As to `O=C1C(Br)=C(c2ccccc2)S(=O)c2ccccc21` (stereo not given), the TGI amounted to 7.62 µM in the experiment on 786-0 renal; 32.1 µM with BT-549 breast; 33.9 µM with EKVX NSCLC; 14.1 µM in the experiment with HCT-15 colon; 36.8 µM in the experiment on HOP-92 NSCLC; 10.4 µM in the experiment with MCF7 breast. The TGI in the experiment with MDA-N came out at 20.4 µM; with SN12C renal, 31 µM; in the experiment with TK-10 renal, 32.2 µM; in the experiment on UACC-257 melanoma, 25.8 µM.
For `CSc1c(C#N)c2n(c3ccccc13)c1ccccc1[n+]2C`, the TGI was above 100 µM in the experiment on 786-0 renal; 74.3 µM in the experiment with BT-549 breast; 56.9 µM in the experiment with EKVX NSCLC; above 100 µM in the experiment with HCT-15 colon; above 100 µM with HOP-92 NSCLC; above 100 µM in the experiment with MCF7 breast. The TGI was determined as 63.5 µM in the experiment with MDA-N, 53.1 µM in the experiment on SN12C renal, 93.6 µM in the experiment with TK-10 renal and 67.8 µM in the experiment on UACC-257 melanoma.
For the compound `CC(=O)N1CCN(C23OC4(N5CCN(C(C)=O)CC5)C5C6CC(C7C6C4C72)C53)CC1` (stereo not given), the TGI with 786-0 renal, in the experiment on BT-549 breast, with EKVX NSCLC, in the experiment with HCT-15 colon, in the experiment with HOP-92 NSCLC and with MCF7 breast was above 100 µM throughout. Further, the TGI with MDA-N, in the experiment on SN12C renal, in the experiment on TK-10 renal and in the experiment on UACC-257 melanoma was above 100 µM throughout.
As to `O=c1[nH]nc(Cc2ccccc2)n1-n1cnnc1`, the TGI in the experiment on 786-0 renal, with BT-549 breast, with EKVX NSCLC, in the experiment with HCT-15 colon, in the experiment on HOP-92 NSCLC and in the experiment on MCF7 breast was above 100 µM throughout. The TGI with MDA-N, in the experiment with SN12C renal, with TK-10 renal and in the experiment on UACC-257 melanoma was above 100 µM in each case.
Regarding `O=C(NCCCNCCNC(=O)c1cc(-c2ccccc2)nc2ccccc12)c1cc(-c2ccccc2)nc2ccccc12`, the TGI in the experiment with 786-0 renal was determined as 3.24 µM; in the experiment on BT-549 breast it was 29.4 µM; in the experiment on EKVX NSCLC, 5.2 µM; in the experiment with HCT-15 colon it was 3.23 µM; with HOP-92 NSCLC, 6.37 µM; with MCF7 breast, 3.15 µM. In addition, the TGI with MDA-N came to 3.36 µM; in the experiment on SN12C renal, 3.24 µM; in the experiment with TK-10 renal, 3.14 µM; with UACC-257 melanoma, 3.08 µM.
For `[N-]=[N+]=Nc1ccc(CNc2cc(=O)[nH]c(=O)[nH]2)cc1`, the TGI in the experiment with 786-0 renal, with BT-549 breast, in the experiment on EKVX NSCLC, with HCT-15 colon, with HOP-92 NSCLC and in the experiment with MCF7 breast was above 100 µM each time. Further, the TGI with MDA-N, with SN12C renal, with TK-10 renal and in the experiment with UACC-257 melanoma was above 100 µM in each case.
Consider `Cc1ccc(C(=O)/C(C#N)=C/Nc2c(C)n(C)n(-c3ccccc3)c2=O)cc1`, for which the TGI in the experiment on 786-0 renal, in the experiment with BT-549 breast, in the experiment with EKVX NSCLC, with HCT-15 colon, in the experiment on HOP-92 NSCLC and with MCF7 breast was above 100 µM each time. The TGI with MDA-N, with SN12C renal, in the experiment with TK-10 renal and with UACC-257 melanoma was above 100 µM each time.
